This passage reports IC50 results from patent US12502386B2, “Nitrogen-containing heterocyclic compound and use thereof” (SHANGHAI SHIJIANG BIOTECHNOLOGY CO., LTD, priority 2022, dated 2025).

What is called IC50 is the concentration at which inhibition is half-maximal.

What all share (format): cell-based, human
For experiment [1], the system named is Con-NCI-H82 cell. In words: CellTiter-Glo cell viability, Con-NCI-H82 cell (empty-vector control). The conditions noted are these: Homo sapiens, NCI-H82, NCI-H82 transfected with empty virus vector (control), intracellular ATP, read-out: inhibitory effect on Con-NCI-H82 (IC50).
Experiment [2] has as its system sh-DNMT1 NCI-H82 cell. In words: CellTiter-Glo cell viability, sh-DNMT1 NCI-H82 cell (DNMT1 knocked down). The conditions noted are these: Homo sapiens, NCI-H82, NCI-H82 with DNMT1 knocked down by shRNA, intracellular ATP, read-out: inhibitory effect on sh-DNMT1 NCI-H82 (IC50). (Cellular ATP, detected with luciferase, serves as a proxy for viable cell number.)
The subject of experiment [3] is ov-NNMT NCI-H82 cell. In words: CellTiter-Glo cell viability, ov-NNMT NCI-H82 cell (NNMT overexpressed). Conditions: Homo sapiens, NCI-H82, NCI-H82 overexpressing NNMT protein, intracellular ATP, read-out: inhibitory effect on OV-NNMT NCI-H82 (IC50).

In the case of `COc1ccc2c(c1OCc1ccccc1-c1ccccc1)C(C(Cl)(Cl)Cl)N1CCc3cc4c(cc3C1=C2)OCO4` (stereo not drawn) [AB35531], the IC50 amounted to 0.92 µM in experiment [1], 3.98 µM in experiment [2] and 3.55 µM in experiment [3].
Consider `COc1ccc2c(c1N1CCC(Cl)CC1)CN1CCc3cc4c(cc3C1=C2)OCCO4` [AB35550], for which the figures for the IC50 in experiment [1], in experiment [2] and in experiment [3] were 2.12 µM, 4.58 µM and 4.69 µM, respectively.
For `COc1ccc2c(c1OC)C(C1CCCCC1=O)N1CCc3cc4c(cc3C1=C2)OCO4` (stereo not drawn) [AB36525], the IC50 was found to be 3.86 µM in experiment [1], 3.96 µM in experiment [2] and 3.53 µM in experiment [3].
`COc1ccc2c(c1OCCCCCCNC(=O)OC(C)(C)C)C(C(Cl)(Cl)Cl)N1CCc3cc4c(cc3C1=C2)OCO4` (stereo not drawn) [AB35407]: the results for the IC50 in experiment [1], in experiment [2] and in experiment [3] were 0.74 µM, 3.44 µM and 2.73 µM, respectively.
`[2H]C1([2H])Cc2cc3c(cc2C2=Cc4ccc(OC)c(OC)c4CN21)OCO3` [AB36476]: the results for the IC50 in experiment [1], in experiment [2] and in experiment [3] were 1.24 µM, 7.34 µM and 4.86 µM, respectively.
With `CCCCCCC1=C2c3cc4c(cc3CCN2C(C2CCCC2)c2c1ccc(OC)c2OC)OCO4` (stereo not drawn) [AB35489], the IC50 in experiment [1] worked out at 0.82 µM; in experiment [2] it was 3.56 µM; in experiment [3], 3.78 µM.
On the same counts, the results for `COc1ccc2c(c1OCCCCl)C(C)N1CCc3cc4c(cc3C1=C2)OCO4` (stereo not drawn) [AB35456] are 2.36 µM, 8.42 µM and 6.72 µM.
Take `CC1c2c(ccc3c2OCO3)C=C2c3cc4c(cc3CCN21)OCO4` (stereo not drawn) [AB35413]: the figures for the IC50 in experiment [1], in experiment [2] and in experiment [3] were 5.48 µM, 20.3 µM and 14.2 µM, respectively.
On to `COc1ccc2c(c1OCCN1CCCCC1)C(C(Cl)(Cl)Cl)N1CCc3cc4c(cc3C1=C2)OCO4` (stereo not drawn) [AB35420], for which the IC50 in experiment [1] was 4.99 µM; in experiment [2], 18.2 µM; in experiment [3], 12.5 µM.
Consider `COc1ccc2c(c1OC)C(C(Cl)(Cl)Cl)N1CCc3cc4c(cc3C1=C2CCCCCCBr)OCO4` (stereo not drawn) [AB35501], for which the IC50 in experiment [1] was determined as 0.87 µM; in experiment [2], 2.56 µM; in experiment [3], 2.12 µM.
For `COc1ccc2c(c1N1CCC(C)CC1)CN1CCc3cc4c(cc3C1=C2)OCCO4` [AB35545], the values for the IC50 in experiment [1], in experiment [2] and in experiment [3] were 0.14 µM, 1.56 µM and 1.33 µM, respectively.
For `[2H]C1c2c(ccc(OC)c2OC)C=C2c3cc4c(cc3CCN21)OCO4` (stereo not drawn) [AB36415], the results for the IC50 in experiment [1], in experiment [2] and in experiment [3] were 0.88 µM, 3.64 µM and 2.56 µM, respectively.
Turning to `COc1ccc2c(c1OCCCF)C(C(Cl)(Cl)Cl)N1CCc3cc4c(cc3C1=C2)OCO4` (stereo not drawn) [AB35478], the figures for the IC50 in experiment [1], in experiment [2] and in experiment [3] were 1.23 µM, 4.02 µM and 4.32 µM, respectively.
As to `[2H]C([2H])([2H])Oc1c(OC)ccc2c1C([2H])(C1CCCC1)N1CCc3cc4c(cc3C1=C2)OCO4` (stereo not drawn) [AB36509], the IC50 in experiment [1] worked out at 0.51 µM; in experiment [2], 2.58 µM; in experiment [3], 1.68 µM.
On to `COc1ccc2c(c1OC/C=C(\C)CCC=C(C)C)C(C1CCCC1)N1CCc3cc4c(cc3C1=C2)OCO4` (stereo not drawn) [AB35438], for which the IC50 worked out at 0.72 µM in experiment [1], 3.22 µM in experiment [2] and 2.12 µM in experiment [3].
On the same counts, the results for `COc1ccc2c(c1OCCCCl)C(C1CCC1)N1CCc3cc4c(cc3C1=C2)OCO4` (stereo not drawn) [AB35490] are 2.68 µM, 8.46 µM and 7.52 µM.
Consider `CCCCN1CCN(c2c(OC)ccc3c2C(C(Cl)(Cl)Cl)N2CCc4cc5c(cc4C2=C3)OCO5)CC1` (stereo not drawn) [AB35445], for which the figures for the IC50 in experiment [1], in experiment [2] and in experiment [3] were 5.55 µM, 16.4 µM and 13.4 µM, respectively.
As for `CCOc1c(OC)ccc2c1CN1CCc3cc4c(cc3C1=C2)OCO4` [AB35594], the IC50 in experiment [1] was 1.26 µM; in experiment [2], 3.98 µM; in experiment [3], 4.12 µM.
On the same counts, the results for `COc1ccc2c(c1OCCCCNC(=O)OC(C)(C)C)C(C(Cl)(Cl)Cl)N1CCc3cc4c(cc3C1=C2)OCO4` (stereo not drawn) [AB35423] are 2.16 µM, 4.36 µM and 4.96 µM.
On to `CCCCCC1c2c(ccc3c2OCO3)C=C2c3cc4c(cc3CCN21)OCO4` (stereo not drawn) [AB36433], for which the figures for the IC50 in experiment [1], in experiment [2] and in experiment [3] were 0.54 µM, 3.01 µM and 1.95 µM, respectively.
Take `COc1ccc2c(c1OC)C(C1CCCC1)N1CCc3cc4c(cc3C1=C2CCCCCCBr)OCO4` (stereo not drawn) [AB35523]: the IC50 in experiment [1] came out at 1.02 µM; in experiment [2], 2.86 µM; in experiment [3], 2.99 µM.
On to `COc1ccc2c(c1OC)C(C1CCCC1)N1CCc3cc4c(cc3C1=C2CCCCCCCl)OCO4` (stereo not drawn) [AB35500], for which the IC50 in experiment [1] came out at 1.11 µM; in experiment [2], 2.88 µM; in experiment [3], 2.98 µM.
As to `COc1ccc2c(c1OCCCCCCCl)C(C1CCCC1)N1CCc3cc4c(cc3C1=C2)OCO4` (stereo not drawn) [AB35440], the values for the IC50 in experiment [1], in experiment [2] and in experiment [3] were 0.98 µM, 4.12 µM and 2.56 µM, respectively.
As for `COc1ccc2c(c1OC)C(C)N1CCc3cc4c(cc3C1=C2CCCc1ccccc1)OCCO4` (stereo not drawn) [AB35493], the IC50 in experiment [1] turned out to be 0.68 µM; in experiment [2] it was 2.07 µM; in experiment [3], 1.53 µM.
On to `COc1ccc2c(c1OCCCCCCCl)C(C)N1CCc3cc4c(cc3C1=C2)OCO4` (stereo not drawn) [AB31888], for which the results for the IC50 in experiment [1], in experiment [2] and in experiment [3] were 2.26 µM, 6.12 µM and 4.64 µM, respectively.
On the same counts, the results for `COc1ccc2c(c1OCCCBr)CN1CCc3cc4c(cc3C1=C2)OCO4` [AB35544] are 0.28 µM, 2.04 µM and 1.02 µM.
As to `COc1ccc2c(c1NCCc1ccccc1)C(C)N1CCc3cc4c(cc3C1=C2)OCO4` (stereo not drawn) [AB31895], the IC50 was found to be 1.14 µM in experiment [1], 4.68 µM in experiment [2] and 3.24 µM in experiment [3].
`[2H]C1([2H])c2c(ccc(OC)c2OC)C=C2c3cc4c(cc3CCN21)OCO4` [AB36434]: the IC50 in experiment [1] was 1.02 µM; in experiment [2] it was 3.68 µM; in experiment [3], 2.56 µM.
As for `COc1ccc2c(c1OCCCCCCNC(=O)OC(C)(C)C)C(C1CCCC1)N1CCc3cc4c(cc3C1=C2)OCO4` (stereo not drawn) [AB35455], the IC50 came to 1.11 µM in experiment [1], 3.12 µM in experiment [2] and 3.33 µM in experiment [3].
With `C1=C2c3cc4c(cc3CCN2Cc2cc3c(cc21)OCO3)OCO4` [AB36428], the results for the IC50 in experiment [1], in experiment [2] and in experiment [3] were 0.45 µM, 2.29 µM and 1.44 µM, respectively.
Take `CCCCCCC1=C2c3cc4c(cc3CCN2C(C(Cl)(Cl)Cl)c2c1ccc(OC)c2OC)OCO4` (stereo not drawn) [AB35508]: the IC50 in experiment [1] is 0.74 µM; in experiment [2] it was 2.98 µM; in experiment [3] it was 3.12 µM.
On the same counts, the results for `COc1ccc2c(c1N1CCC(NC(=O)OC(C)(C)C)CC1)C(C(Cl)(Cl)Cl)N1CCc3cc4c(cc3C1=C2)OCO4` (stereo not drawn) [AB35465] are 2.69 µM, 8.84 µM and 9.32 µM.
Regarding `COc1ccc2c(c1OC)C(C)N1CCc3cc4c(cc3C1=C2)OCCO4` (stereo not drawn) [AB31898], the results for the IC50 in experiment [1], in experiment [2] and in experiment [3] were 3.69 µM, 12.1 µM and 8.64 µM, respectively.
With `COc1ccc2c(c1OC(=O)CC13CC4CC(CC(C4)C1)C3)C(C1CCCC1)N1CCc3cc4c(cc3C1=C2)OCO4` (stereo not drawn) [AB35459], the values for the IC50 in experiment [1], in experiment [2] and in experiment [3] were 4.97 µM, 16.5 µM and 12.3 µM, respectively.
